Measurements from US10000471B2, “Pyrazole P38 map kinase inhibitors” (Respivert Limited, priority 2010, dated 2018).

Legend:
[1] = biological target: T1, p38 MAPKα isoform (MAPK14) (Homo sapiens, UniProt Q16539); experiment: Enzyme inhibition assay (FRET, Z-LYTE), p38 MAPKα via MAPKAP-K2 activation; format: biochemical; details: read-out: Enzyme Inhibition IC50 p38α
T1 construct: purchased Invitrogen
Summary of the method: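 Recombinant p38 MAPKα was preincubated with compound for 2 h at RT. Its activity was measured indirectly through activation/phosphorylation of downstream MAPKAP-K2, with a Z-LYTE FRET peptide read-out (coumarin/fluorescein ratio) after a 1 h development step. IC50 came from concentration-response curves of percent inhibition versus an uninhibited control.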

[2] = system: TNFα release in THP-1 cells; experiment: LPS-induced TNFα release in THP-1 cells; format: cell-based, human; details: Homo sapiens
Summary of the method: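 Human monocytic THP-1 cells stimulated with 3 μg/mL E. coli LPS for 4 hr; supernatant TNFα measured by sandwich ELISA. Inhibition at each concentration versus vehicle control, IC50 from concentration-response curve.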

p38 MAPKγ (MAPK12) = biological target: T2, p38 MAPKγ (MAPK12) (Homo sapiens, UniProt P53778); experiment: Enzyme inhibition assay (FRET, Z-LYTE), p38 MAPKγ; format: biochemical; details: read-out: Enzyme Inhibition IC50 p38γ
T2 construct: purchased Invitrogen
T2 sequence (P53778 1-367): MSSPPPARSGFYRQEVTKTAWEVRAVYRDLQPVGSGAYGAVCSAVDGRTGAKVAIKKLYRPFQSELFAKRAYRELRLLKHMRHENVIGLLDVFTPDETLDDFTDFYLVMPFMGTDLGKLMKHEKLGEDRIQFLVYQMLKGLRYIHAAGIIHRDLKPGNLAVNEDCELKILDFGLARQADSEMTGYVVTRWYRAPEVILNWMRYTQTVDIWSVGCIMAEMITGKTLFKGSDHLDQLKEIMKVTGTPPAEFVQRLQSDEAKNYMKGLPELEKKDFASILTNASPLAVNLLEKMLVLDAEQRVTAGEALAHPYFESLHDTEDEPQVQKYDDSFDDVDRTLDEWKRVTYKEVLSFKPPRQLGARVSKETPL
Summary of the method: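 Recombinant phosphorylated p38 MAPKγ preincubated 2 h at RT with compound in HEPES buffer, then 2 μM FRET peptide and 100 μM ATP added for 1 h; protease development 1 h. Coumarin/fluorescein emission ratio gave phosphorylation; IC50 from concentration-response versus uninhibited control.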

[3] = system: TNFα release in d-U937 cells; experiment: LPS-induced TNFα release in d-U937 cells; format: cell-based, human; details: Homo sapiens, dU937, relative to 10 μg/mL BIRB796, read-out: LPS/TNFα REC50 d-U937
Summary of the method: (§1)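 PMA-differentiated (100 ng/ml, 48–72 hr) U937 macrophage-type cells pre-incubated 2 hr with compound, then stimulated 4 hr with 0.1 μg/mL E. coli O111:B4 LPS; supernatant TNFα and IL-8 measured by sandwich ELISA. TNFα inhibition expressed relative to 10 μg/mL BIRB796, giving REC50; IL-8 inhibition versus vehicle, giving IC50.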

[4] = system: ICAM-1 induction in BEAS2B cells; experiment: Poly I:C-induced ICAM-1 induction in BEAS2B cells; format: cell-based, human; details: Homo sapiens, BEAS-2B, read-out: PolyIC/ICAM1 IC50 BEAS2B
Summary of the method: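 Human bronchial epithelial BEAS2B cells were pre-incubated with compound for 2 hr, then transfected with 1 μg/mL poly I:C. After 18 hr, surface ICAM-1 was measured by cell-based ELISA (OD450-655) and normalized to crystal violet cell counts (OD595). IC50 came from inhibition versus vehicle across the concentration-response curve.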

[5] = system: IL-8 release in d-U937 cells; experiment: LPS-induced IL-8 release in d-U937 cells; format: cell-based, human; details: Homo sapiens, dU937
Summary of the method: as §1

[6] = system: Differentiated U937 cells; experiment: Cell viability MTT assay; format: cell-based, human; details: negative = apparent increase in viability; for MTT Assay (Viability) 4 h d-U937, percentage loss of cell viability: 4 hr in 5% FCS; for MTT Assay (Viability) 24 h d-U937, percentage loss of cell viability: 24 h in 10% FCS
Summary of the method: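 Differentiated U937 cells pre-incubated with compound either 4 hr in 5% FCS or 24 h in 10% FCS, then 1 hr MTT. Formazan dissolved in DMSO, absorbance at 550 nm. Percentage viability loss relative to 0.5% DMSO vehicle; apparent increases appear as negative percentages.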

T1 sequence (Q16539 whole entry, canonical isoform): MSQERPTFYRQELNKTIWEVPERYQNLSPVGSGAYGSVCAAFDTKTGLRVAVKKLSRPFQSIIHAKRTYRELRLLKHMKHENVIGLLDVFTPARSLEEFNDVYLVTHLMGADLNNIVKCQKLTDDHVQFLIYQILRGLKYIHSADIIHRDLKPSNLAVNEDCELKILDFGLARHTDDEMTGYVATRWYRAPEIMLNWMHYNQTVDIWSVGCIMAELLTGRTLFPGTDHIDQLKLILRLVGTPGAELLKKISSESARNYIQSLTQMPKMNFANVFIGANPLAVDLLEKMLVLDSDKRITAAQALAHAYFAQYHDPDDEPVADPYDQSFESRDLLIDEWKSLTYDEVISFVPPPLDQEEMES

| Compound | IC50 [1] | IC50 [2] | IC50 (p38 MAPKγ (MAPK12)) | EC50 [3] | IC50 [4] | IC50 [5] | MTT Assay (Viability) 4 h d-U937, percentage loss of cell viability [6] | MTT Assay (Viability) 24 h d-U937, percentage loss of cell viability [6] |
| --- | --- | --- | --- | --- | --- | --- | --- | --- |
| COCC(=O)Nc1cc(Oc2ccc(NC(=O)Nc3cc(C(C)(C)C)nn3-c3ccc(CO)cc3)c(Cl)c2Cl)ccn1 [Example 49, N-(4-(4-(3-(3-tert-butyl-1-(4-hydroxymethylphenyl)-1H-pyrazol-5-yl)ureido)-2,3-dichlorophenoxy)pyridin-2-yl)-2-methoxyacetamide] | 16.5 nM | 1.2 nM | 36 nM | 0.7 nM | 1.5 nM | 2.2 nM | −4.8% | 92.2% |
| CNC(=O)Nc1cc(Oc2ccc(NC(=O)Nc3cc(C(C)(C)C)nn3-c3ccc(C)cc3)c(Cl)c2Cl)ccn1 [Example 50, 1-(3-tert-butyl-1-p-tolyl-1H-pyrazol-5-yl)-3-(2,3-dichloro-4-(2-(3-methylureido)pyridin-4-yloxy)phenyl)urea] | 41.2 nM | 1.3 nM | 59.2 nM | 0.2 nM | 1.1 nM | 0.6 nM | −5.4% | 35.9% |
| CNC(=O)Nc1cc(Oc2ccc(NC(=O)Nc3cc(C(C)(C)C)nn3-c3ccc(O)cc3)c(Cl)c2Cl)ccn1 [Example 51, 1-(3-tert-butyl-1-(4-hydroxyphenyl)-1H-pyrazol-5-yl)-3-(2,3-dichloro-4-(2-(3-methylureido)pyridin-4-yloxy)phenyl)urea] | 34.2 nM | 0.7 nM | 174 nM | 1.2 nM | 0.7 nM | 6.8 nM | −17.3% | 57.3% |
| CNC(=O)Nc1cc(Oc2ccc(NC(=O)Nc3cc(C(C)(C)C)nn3-c3ccc(CO)cc3)c(Cl)c2Cl)ccn1 [Example 52, 1-(3-tert-butyl-1-(4-hydroxymethylphenyl)-1H-pyrazol-5-yl)-3-(2,3-dichloro-4-(2-(3-methylureido)pyridin-4-yloxy)phenyl)urea] | 16.8 nM | 1 nM | 32.1 nM | 0.5 nM | 2.4 nM | 1.9 nM | −43.8% | 8.1% |
| CNC(=O)Nc1cc(Oc2ccc(NC(=O)Nc3cc(C(C)(C)C)nn3-c3ccc(CO)c(OC)c3)c(Cl)c2Cl)ccn1 [Example 53, 1-(3-tert-butyl-1-(4-hydroxymethyl-3-methoxy-phenyl)-1H-pyrazol-5-yl)-3-(2,3-dichloro-4-(2-(3-methylureido)pyridin-4-yloxy)phenyl)urea] | 46.9 nM | 1.8 nM | 35.8 nM | 1.3 nM | 2.2 nM | 7.7 nM | −1.1% | 87.8% |
| CNC(=O)Nc1cc(Oc2ccc(NC(=O)Nc3cc(C(C)(C)C)nn3-c3ccc(CO)c(Cl)c3)c(Cl)c2Cl)ccn1 [Example 54, 1-(3-tert-butyl-1-(3-chloro-4-hydroxymethylphenyl)-1H-pyrazol-5-yl)-3-(2,3-dichloro-4-(2-(3-methylureido)pyridin-4-yloxy)phenyl)urea] | 87.7 nM | 2.2 nM | 52.8 nM | 0.3 nM | 2.5 nM | 3.2 nM | −34.9% | 71.2% |
| CC(C)(C)c1cc(NC(=O)Nc2ccc(Oc3ccnc(NC(=O)NC4CC4)c3)c(Cl)c2Cl)n(-c2ccc(CO)cc2)n1 [Example 55, 1-(4-(4-(3-(3-tert-butyl-1-(4-hydroxymethylphenyl)-1H-pyrazol-5-yl)ureido)-2,3-dichlorophenoxy)pyridin-2-yl)-3-cyclopropylurea] | 50.1 nM | 4.8 nM | 200 nM | 1 nM | 1.7 nM | 3.1 nM | −15.0% | 49.2% |
